Measured values: patent US8802731B2, “N-acetyl beta alanine methods of use” (ThermoLife International, LLC, priority 2011, dated 2014)
Each block holds one molecule with its values, some of them ahead of it.

Key:
[1] = solubility in organic solvents; format: physicochemical
subjects [2] = assay: paresthesia after administration of N-acetyl beta alanine to subjects; format: in vivo, human
Description: For the exemplary purposes of this disclosure, the Applicants have administered N-acetyl beta alanine to over 30 different subjects in doses ranging from 1 to even 10 grams.

solubility in water = format: physicochemical; conditions: found by applicants
well trained athletes = assay: effects reported by well trained athletes given N-acetyl-beta alanine; format: in vivo, human; conditions: 5 grams per day x1, 10 well trained athletes, self-report
Description: For the exemplary purposes of this disclosure, the Applicants have also administered N-acetyl-beta alanine at a dose of 5 grams per day ×1 in 10 subjects, all of them well trained athletes that had in the past used beta alanine and were well aware of it's benefits. All of the subjects had not used beta alanine for at least a month. They were asked to report the effects of the “new beta alanine preparation” they were offered.

[3] = test system: experienced resistance-trained athletes; conditions: four weeks of supplementation; cited from earlier work
[4] = cited from earlier work
[5] = cited from earlier work; remark: listed apart in the source
[6] = described (literature); cited from earlier work
elderly men and women = conditions: cited from earlier work
mice = conditions: cited from earlier work
subjects [7] = conditions: 10 weeks of resistance training with supplementation; cited from earlier work
individuals = conditions: cited from earlier work
[8] = single ingested dose; cited from earlier work
fructose-fed rats = conditions: preliminary experiment; cited from earlier work

- solubility in water and organic solvents [1]: soluble in water and organic solvents
- paresthesia (subjects [2]; large doses of 5+ grams): no paresthesia observed
- paresthesia or negative feelings described by users (subjects [2]; over 30 subjects, doses ranging from 1 to 10 grams): No paresthesia or negative feelings
- solubility in water (solubility in water): 22 g/100 mL
SMILES: CC(=O)NCCC(=O)O [N-acetyl beta alanine, 3-acetamidopropanoic acid]
- rate at which full benefits were exhibited (well trained athletes): full benefits were exhibited at a faster rate
- reported effectiveness compared with normal beta-alanine (well trained athletes): improved effectiveness over normal beta-alanine

SMILES: NCCC(=O)O [beta alanine, β-Alanine]
- muscular endurance during resistance training [3]: can significantly improve muscular endurance
- maximal strength or VO2max ([4]; in vivo): does not improve maximal strength or VO2max
- onset of neuromuscular fatigue ([4]; in vivo): delay the onset of neuromuscular fatigue
- performance in high-intensity exercise ([4]; multiple bouts of high-intensity exercise and single bouts lasting more than 60 s): improvements in performance
- acidosis due to exercise ([5]; 4.8 grams per day): can attenuate acidosis due to exercise
- fall in blood pH during high-intensity exercise ([5]; chronic supplementation): can attenuate the fall in blood pH
- water solubility [6]: 55-89 grams/100 ml
- increase in physical working capacity fatigue threshold (elderly men and women; 800 mg x3 per day, elderly (55-92 years)): 28%
- physical working capacity / onset of neuromuscular fatigue (elderly men and women; ninety days of supplementation, elderly men and women): may increase physical working capacity by delaying the onset of neuromuscular fatigue
- behavioral effect of supplemented diet (mice): anxiolytic-like effect
- increase in Muscle-Carnosine (subjects [7]): 12.81+/−7.97 mmol×kg (−1) dry muscle
- aerobic capacity (VO2max) (individuals; post supplementation, 28 days): reduced aerobic capacity
- sub-maximal endurance performance (OBLA) (individuals; supplementation for 28 days): enhanced sub-maximal endurance performance by delaying OBLA
- single dose above which symptoms of paresthesia may be observed [8]: higher than 800 mg

SMILES: NCCC(=O)N[C@@H](Cc1cnc[nH]1)C(=O)O [carnosine]
- diabetes-associated increase in blood pressure (fructose-fed rats): suppressed diabetes-associated increase in blood pressure

SMILES: NCCS(=O)(=O)O [taurine]
- behavioral effect of supplemented diet (mice): antidepressant-like effect
